This is an account of results in US20240207237A1, “METHOD OF SCREENING FOR DRUG COMBINATION FOR COLORECTAL CARCINOMA TREATMENT, DRUG COMBINATION AND USE THEREOF” (National Tsing Hua University, priority 2022, published 2024).

The first assay deals with HCT116 cell lines. Kind of assay: IC50 and cell viability assay of clinical drugs (CCK-8). It counts as cell-based, human. The note with it: CCK-8, absorbance 450 nm, triplicate, mean ± SD, Resistance = drug does not affect cell viability. As to the method:
All the mediums were purchased from […].
To determine suitable cell seeding number for each cell line, different number (300, 500, 1000, 3000) of cells/wells were seeded in a 96-well plate. A cell viability was determined using a real-time viability assay (RealTime-Glo™ Assay Reagent). Luminescence intensities were measured at different time points (4, 8, 16, 24, 36, 48, 60 and 72 hours) to evaluate a cell growth curve. To establish IC50 values of ten drugs on each cell line, gradient concentrations of each drug were prepared. […] The cell viability was measured with Cell Counting Kit 8 (e.g., CCK-8 purchased from Dojindo molecular technologies, Japan), and cell viability assay was performed after 2 hours of incubation by measuring the absorbances at 450 nm. Relative cell numbers were determined as compared with the control cells. All experiments were performed in triplicate manner, and data were represented as expressed as mean±standard deviation (mean±SD).
For `Nc1nc(=O)c2c([nH]1)NCC(CNc1ccc(C(=O)N[C@@H](CCC(=O)O)C(=O)O)cc1)N2C=O` (mixture of isomers) [Folinic acid (F), Folinic acid], the “IC50 (μM) ± SD” value is listed as “Resistance”.

In general, IC50 refers to the concentration that gives 50% inhibition. Low readings indicate inhibition by little substance, high ones a need for much substance. On to `O=C1[O][Pt]2([NH][C@@H]3CCCC[C@H]3[NH]2)[O]C1=O` [Oxaliplatin (O), Oxaliplatin], for which the IC50 stood at 10.3 ± 3.27 µM.

As to Bevacizumab [Bevacizumab (B)], the “IC50 (μM) ± SD” value is “Resistance”.

As for Panitumumab [Panitumumab (P)], the “IC50 (μM) ± SD” value was “Resistance”.

Staying with this assay, now noted: Homo sapiens, HCT-116, CCK-8, absorbance 450 nm, triplicate, mean ± SD, Resistance = drug does not affect cell viability.
In turn, `Nc1ccn([C@@H]2O[C@H](CO)[C@@H](O)C2(F)F)c(=O)n1` [Gemcitabine (G), Gemcitabine] showed an IC50 of 0.183 µM.

Molecule `CCc1c2c(nc3ccc(OC(=O)N4CCC(N5CCCCC5)CC4)cc13)-c1cc3c(c(=O)n1C2)COC(=O)[C@]3(O)CC` [Irinotecan (I), Irinotecan] returned an IC50 of 0.01 ± 0.03 µM.

`CNC(=O)c1cc(Oc2ccc(NC(=O)Nc3ccc(Cl)c(C(F)(F)F)c3)c(F)c2)ccn1` [Regorafenib (R), Regorafenib] gave an IC50 of 5.89 ± 0.713 µM.

The molecule `COc1cc2nccc(Oc3ccc(NC(=O)NC4CC4)c(Cl)c3)c2cc1C(N)=O` [Lenvatinib (L), Lenvatinib] displayed an IC50 of 28.5 ± 0.802 µM.

`O=c1[nH]cc(F)c(=O)[nH]1` [5-FU (U), 5-Fluorouracil] returned a 50% inhibitory concentration (IC50) of 8.56 ± 0.897 µM.
